Here are results for 19 compounds from paper PMC9143738, “New Chemotypes for the Inhibition of (p)ppGpp Synthesis in the Quest for New Antimicrobial Compounds” (Molecules, 2022).

What all share (type): binding, S. equisimilis
One test concerns the target T1, RelSeq SYNTH (79–385) (Streptococcus dysgalactiae subsp. equisimilis, UniProt Q54089).
T1 construct: His-tag (C); made in house; host or cells: BL21(DE3) Escherichia coli
Kind of test: STD-NMR with RelSeq SYNTH. Conditions: fragment:protein ratio 1000:1; fragment concentration 3 mM. As to the method: (§1) The relatively weak affinity of the fragments measured by TSA directed us towards NMR methods to assess the specificity of the fragments-protein interactions. […] In particular, STD (Saturation Transfer Difference) exploits NOE effects between the protein and the ligand to map target–ligand interactions and to characterize biologically relevant complexes.
(§2) STD-NMR experiments on selected fragments vs. RelSeq constructs. Experiments were performed on a 600 MHz Bruker Avance spectrometer. All experiments were acquired at 298 and 283 K on the free ligands in deuterated phosphate buffer pH 7.4. A DMSO-d6 percentage of about 5% was added to dissolve the fragments. In 1D spectra, water suppression was achieved by excitation sculpting sequence. STD NMR experiments were performed using WATERGATE 3-9-19 pulse sequence for water suppression. On-resonance irradiation of the protein was performed at a chemical shift of −0.05 ppm and 10 ppm; off-resonance irradiation was applied at 200 ppm, where no protein signals were visible. Selective pre-saturation of the protein was achieved by a train of Gauss-shaped pulses of 49 ms in length each. STD spectra were acquired with a saturation time of 2.94 s for all compounds. Blank experiments were conducted in the absence of protein in order to avoid artifacts.

Test [1] addresses T2, RelSeq 1–385 (Streptococcus dysgalactiae subsp. equisimilis, UniProt Q54089).
T2 construct: His-tag (C); host or cells: BL21(DE3) Escherichia coli
Nature of the test: Thermal shift assay on RelSeq 1–385. An excerpt: Thermal shift is an experimental technique in which protein thermal denaturation is monitored following the increase in fluorescence reported by a protein-bound dye. In particular, an environment-sensitive hydrophobic dye (e.g., SYPRO Orange) binds to hydrophobic regions that become progressively exposed during thermal denaturation, resulting in an increase in its fluorescence emission. Since the binding of small molecules (e.g., fragments) to the protein can cause conformational changes that affect its melting temperature, this technique allows the screening of several compounds in a range of concentrations without consuming sizeable amounts of protein.
We therefore evaluated the affinity of the 18 fragments selected from our in silico screening for the bifunctional protein RelSeq by titration of the protein in a thermal shift assay (Table 1).
(§3) Thermal shift assays on selected fragments vs. RelSeq constructs. The binding of the selected fragments to RelSeq constructs was assessed by titration of the protein in thermal shift assays, performed using a Step One Real-Time PCR system (Thermo Fisher Scientific, Waltham, MA, USA). Assays were performed in 20 mM Tris-HCl, pH 8, containing 150 mM NaCl. The final protein concentration was kept at 0.5 mg/mL for all RelSeq constructs, and the fluorescent Protein Thermal Shift Dye (Thermo Fisher Scientific, Waltham, MA, USA) was used to monitor protein unfolding within the excitation/emission ranges 470–505/540–700 nm. […] Assays were performed in triplicate at a final volume of 15 µL in MicroAmp™ Fast Optical 48-well reaction plates (Thermo Fisher Scientific, Waltham, MA, USA) sealed with adhesive films. Plates were heated from 25 to 90 °C with a heating rate of 0.5 °C/min. The Kd of protein–ligand complexes engaged by RelSeq constructs with the tested fragments was calculated from the plot of protein melting temperature variations as a function of fragment concentrations with the equation for Ligand Binding (1 site) provided with the software GraFit 5.0 (Erithacus Software, Staines, UK).

In test [2] the target is T3, RelSeq HYD (residues 1–224) (Streptococcus dysgalactiae subsp. equisimilis, UniProt Q54089).
T3 construct: His-tag (C); made in house; host or cells: BL21(DE3) Escherichia coli
Kind of test: Thermal shift assay on RelSeq HYD. Conditions: titration 0.3–10 mM, pH 8. As to the method:
as §3, with “USA).” for “USA). Assays were performed in 20 mM Tris-HCl, pH 8, containing 150 mM NaCl. The final protein concentration was kept at 0.5 mg/mL for all RelSeq constructs, and the fluorescent Protein Thermal Shift Dye (Thermo Fisher Scientific, Waltham, MA, USA) was used to monitor protein unfolding within the excitation/emission ranges 470–505/540–700 nm.”

The next test has as its target T4, RelSeq HYD (1–224) (Streptococcus dysgalactiae subsp. equisimilis, UniProt Q54089).
T4 construct: His-tag (C); made in house; host or cells: BL21(DE3) Escherichia coli
Kind of test: STD-NMR with RelSeq HYD. To be noted: fragment:protein ratio 1000:1; fragment concentration 3 mM. As to the method: as §1, §2

Test [3] deals with T5, RelSeq SYNTH (residues 79–385) (Streptococcus dysgalactiae subsp. equisimilis, UniProt Q54089).
T5 construct: His-tag (C); made in house; host or cells: BL21(DE3) Escherichia coli
Kind of test: Thermal shift assay on RelSeq SYNTH. Conditions: titration 0.3–10 mM, pH 8. As to the method:
as §3, with “USA).” for “USA). Assays were performed in 20 mM Tris-HCl, pH 8, containing 150 mM NaCl. The final protein concentration was kept at 0.5 mg/mL for all RelSeq constructs, and the fluorescent Protein Thermal Shift Dye (Thermo Fisher Scientific, Waltham, MA, USA) was used to monitor protein unfolding within the excitation/emission ranges 470–505/540–700 nm.”

Test [4] has as its target T2, RelSeq 1–385. Nature of the test: STD-NMR with RelSeq (1–385). To be noted: fragment:protein ratio 1000:1; fragment concentration 3 mM. As to the method: as §1, §2
Test [5] concerns the target T2, RelSeq 1–385. Kind of test: Tryptophan assay. Conditions: read-out: Kd RelSeq 1–385 measured by tryptophan assay (converted). An excerpt:
With the aim of studying protein–ligand interactions between RelSeq constructs and selected fragments, we evaluated the use of different techniques, such as tryptophan assay, microscale thermophoresis (MST), isothermal calorimetry (ITC) or thermal shift assay (TSA). The tryptophan assay is based on ligand-induced conformational changes in the local environment surrounding tryptophan residues in the target protein. Irradiation at 280 nm is followed by the detection of tryptophan fluorescence emission at different wavelengths. We used this technique to measure the Kd values of the natural substrates GDP and ATP (see below), but it is not applicable in the case of fragments due to their high absorbance at 280 nm. On the other hand, the currently available protein-labeling reagents for MST were not compatible with our protein constructs. We chose TSA over ITC due to its higher potential throughput and lower amount of protein required.

Where [6] appears, read: thermal shift assay, titration 0.3–10 mM, pH 8.

The structures appear in SMILES notation. Bounds are passed on as bounds.

T5 sequence (Q54089 79-385): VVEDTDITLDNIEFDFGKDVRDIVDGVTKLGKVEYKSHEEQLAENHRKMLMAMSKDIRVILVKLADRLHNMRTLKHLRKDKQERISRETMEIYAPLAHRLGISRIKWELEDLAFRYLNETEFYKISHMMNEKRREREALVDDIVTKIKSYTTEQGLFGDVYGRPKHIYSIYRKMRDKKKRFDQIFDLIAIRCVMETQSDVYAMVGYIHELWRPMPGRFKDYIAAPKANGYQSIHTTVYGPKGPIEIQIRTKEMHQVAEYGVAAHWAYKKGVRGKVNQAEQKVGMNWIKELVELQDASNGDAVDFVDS
T3 sequence (Q54089 1-224): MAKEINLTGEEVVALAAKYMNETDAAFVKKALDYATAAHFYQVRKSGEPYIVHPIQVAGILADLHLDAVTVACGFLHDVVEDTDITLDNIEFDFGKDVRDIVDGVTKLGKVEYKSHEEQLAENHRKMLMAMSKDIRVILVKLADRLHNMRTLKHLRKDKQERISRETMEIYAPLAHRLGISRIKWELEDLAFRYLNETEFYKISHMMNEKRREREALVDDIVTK
T2 sequence (Q54089 1-385): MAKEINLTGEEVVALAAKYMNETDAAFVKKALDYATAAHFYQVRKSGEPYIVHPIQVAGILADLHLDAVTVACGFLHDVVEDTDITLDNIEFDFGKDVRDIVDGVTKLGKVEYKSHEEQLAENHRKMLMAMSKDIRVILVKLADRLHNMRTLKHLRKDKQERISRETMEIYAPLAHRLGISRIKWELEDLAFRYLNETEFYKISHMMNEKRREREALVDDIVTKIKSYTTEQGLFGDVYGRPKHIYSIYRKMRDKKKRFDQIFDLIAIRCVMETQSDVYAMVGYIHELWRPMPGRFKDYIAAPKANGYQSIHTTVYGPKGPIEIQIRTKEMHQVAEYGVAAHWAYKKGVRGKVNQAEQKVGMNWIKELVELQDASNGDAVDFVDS
T1 sequence (Q54089 79-385): as the sequence (Q54089 79-385) above
T4 sequence (Q54089 1-224): as the sequence (Q54089 1-224) above

For `Nc1ccccc1C(=O)O` [A1], the “STD-NMR interaction with RelSeq SYNTH (79–385)” value at RelSeq SYNTH (79–385) is listed as “Comparable overall STD intensities”. Also, the Kd on RelSeq 1–385 [1] was found to be 1.2 ± 0.3 mM; in test [3] it was 10.8 ± 2.2 mM. Also, the “Kd RelSeq HYD” value in test [2] was “No binding”. Further, the “STD-NMR interaction with RelSeq HYD (1–224)” value on RelSeq HYD (1–224) is “did not produce any magnetization transfer”. Besides, the “STD-NMR interaction with RelSeq (1–385)” value at RelSeq 1–385 [4] was “good interaction for the aromatic protons”.
As for `Nc1c(Cl)cc(Cl)cc1C(=O)O` [A2], at RelSeq 1–385 [1] (setting [6]), the “Kd RelSeq 1–385” value is “No binding”. Moreover, the “Kd RelSeq HYD” value in test [2] is listed as “No binding”. Also, the “Kd RelSeq SYNTH” value in test [3] is given as “No binding”. For the same compound, the “STD-NMR interaction with RelSeq (1–385)” value on RelSeq 1–385 [4] is on record as “did not show any significant interaction”.
Consider `Nc1ccc(F)cc1C(=O)O` [A3], for which the Kd on RelSeq 1–385 [1] amounted to 1.5 ± 0.1 mM; in test [3] it was 5.5 ± 0.9 mM. In test [2], the “Kd RelSeq HYD” value is “No binding”.
Take `Nc1cccc(C(=O)O)c1` [A4]: the Kd was 6.6 ± 0.1 mM on RelSeq 1–385 [1] and 9.8 ± 2.8 mM in test [3]. Besides, the “Kd RelSeq HYD” value in test [2] is on record as “No binding”.
Take `COc1ccc(C(=O)O)cc1N` [A5]: the Kd is 1.1 ± 0.2 mM on RelSeq 1–385 [1] and 2.2 ± 0.4 mM in test [3]. The “Kd RelSeq HYD” value in test [2] is on record as “No binding”.
Take `Nc1ccc(C(=O)O)c(Cl)c1` [A6]: the Kd amounted to 4.3 ± 1.1 mM on RelSeq 1–385 [1] and 6.5 ± 1.2 mM in test [3]. Besides, the “Kd RelSeq HYD” value in test [2] was “No binding”.
For `COc1cc(C(=O)O)ccc1N` [A7], in that order: 4 ± 0.9 mM, 4.3 ± 0.5 mM and “No binding”.
With `Nc1ncnc2c1ncn2[C@@H]1O[C@H](COP(=O)(O)OP(=O)(O)OP(=O)(O)O)[C@@H](O)[C@H]1O` [ATP, reference compound], the Kd at RelSeq 1–385 [5] is 0.39 mM; at RelSeq 1–385 [1] (thermal shift assay, titration 0.3–10 mM, pH 8, read-out: Kd RelSeq 1–385), 0.49 ± 0.09 mM.
As for `OCc1ccc2[nH]cnc2c1` [B1], the “Kd RelSeq 1–385” value at RelSeq 1–385 [1] (setting [6]) is given as “No binding”. Also, in test [2], the “Kd RelSeq HYD” value is listed as “No binding”. Also, the “Kd RelSeq SYNTH” value in test [3] is “No binding”. Also, at RelSeq 1–385 [4], the “STD-NMR interaction with RelSeq (1–385)” value is “did not show any significant interaction”.
Take `O=C(O)c1ccc2[nH]cnc2c1` [B2]: the “Kd RelSeq 1–385” value on RelSeq 1–385 [1] (setting [6]) was “Biphasic”. Further, the Kd in test [2] stood at 1.9 ± 0.7 mM. Further, the “Kd RelSeq SYNTH” value in test [3] is on record as “No binding”.
`O=C(O)c1cccc2[nH]cnc12` [B3]: the Kd on RelSeq 1–385 [1] is 3.4 ± 0.3 mM; in test [2], 3.3 ± 0.9 mM; in test [3] it was 4.3 ± 0.4 mM.
Turning to `O=C(O)c1cc2nc[nH]c2cc1C(=O)O` [B4], on RelSeq 1–385 [1] (setting [6]), the “Kd RelSeq 1–385” value is on record as “No binding”. The “Kd RelSeq HYD” value in test [2] is recorded as “No binding”. Moreover, the “Kd RelSeq SYNTH” value in test [3] is recorded as “No binding”.
As for `O=C(O)c1ccc2ocnc2c1` [BO1], the Kd was found to be 2.2 ± 0.3 mM at RelSeq 1–385 [1] and 2.7 ± 0.6 mM in test [3]. The “Kd RelSeq HYD” value in test [2] is on record as “No binding”.
Regarding `O=C(O)c1ccc2nn[nH]c2c1` [BT1], the “Kd RelSeq 1–385” value on RelSeq 1–385 [1] (setting [6]) was “No binding”. Also, the “Kd RelSeq HYD” value in test [2] is “No binding”. For the same compound, in test [3], the “Kd RelSeq SYNTH” value is “No binding”.
Take `O=C(O)c1ccc2cc[nH]c2c1` [I1]: the values for the Kd (at RelSeq 1–385 [1]; in test [3]) were 6.5 ± 1.1 mM and 9.6 ± 1.5 mM, respectively. In addition, the “Kd RelSeq HYD” value in test [2] is reported as “No binding”.
For `O=C(O)c1ccc2[nH]ccc2c1` [I2], in that order: 2.5 ± 0.6 mM, 5.5 ± 0.9 mM and “No binding”.
For the compound `O=C(O)c1cccc2[nH]ccc12` [I3], the values for the Kd (on RelSeq 1–385 [1]; in test [3]) were 4 ± 0.5 mM and 9.9 ± 4.5 mM, respectively. The “Kd RelSeq HYD” value in test [2] is given as “No binding”.
Regarding `O=C(O)Cc1c[nH]c2ccc(F)cc12` [I4], the Kd on RelSeq 1–385 [1] is 3.2 ± 0.7 mM; in test [3], over 15 mM. Also, the “Kd RelSeq HYD” value in test [2] is on record as “No binding”.
For `CC(C)c1cc(C(=O)O)nc2ncnn12` [TP1], in that order: 3.4 ± 0.8 mM, 8.3 ± 1.6 mM and “No binding”.
